From patent publication US7622492B2, “Pyrazolones as inhibitors of 11β-hydroxysteroid dehydrogenase” (Hoffmann-La Roche Inc., priority 2005, dated 2009) come the findings set out here.

In test [1] the target is human HSD1 (Homo sapiens, UniProt P28845). The test is described as follows: In vitro inhibition of purified human HSD1 (time-resolved fluorescence cortisol detection). It counts as biochemical. As to conditions: purified human HSD1, cortisone substrate, 30 min; read-out: hHSD1 IC50. Here is the method:
Purified human HSD1 was diluted in 50 mM Tris-HCl, 100 mM NaCl, 0.1 mg/ml BSA, 0.02% Lubrol, 20 mM MgCl2, 10 mM glucose 6-phosphate, 0.4 mM NADPH, 60 U/ml glucose 6-phosphate dehydrogenase to a concentration of 1.5 μg/ml (Enzyme Solution). […] Testing compounds (40 μM) in DMSO was diluted 3 fold in series in DMSO and further diluted 20 fold in Substrate Solution. Enzyme Solution (10 μl/well) was added into 384 well microtiter plates followed by diluted compound solutions (10 μl/well) and mixed well. Samples were then incubated at […] for 30 min. EDTA/biotin-cortisol solution (10 μl/well) in 28 mM EDTA, […], 50 mM Tris-HCl, 100 mM NaCl was then added followed by 5 ul/well of anti-cortisol antibody (3.2 μg/ml) in 50 mM Tris-HCl, 100 mM NaCl, 0.1 mg/ml BSA and the solution was incubated at 37 degrees for 30 min. […] Signals were quantitated by reading time-resolved fluorescence on a Victor 5 reader (Wallac).

The target of test [2] is T1, human 11betaHSD1 (Homo sapiens, UniProt P28845).
T1 construct: HEK-293 cells stably transfected with full-length human 11betaHSD1 cDNA; expressed in transfected cells; host or cells: HEK-293
The test is described as follows: Cell-based assay: HEK-293 cells stably transfected with human 11betaHSD1, cortisol by competitive ELISA. The following applies: HEK-293 cells stably transfected with full-length human 11betaHSD1 cDNA, cortisone 100 nM, 1 hour. The protocol: The following day, serially diluted 11bHSD1 inhibitor compounds dissolved in DMSO were added to plating media supplemented with BSA (2 mg/ml final). The final DMSO concentration was 1%. Media was aspirated from plates, and compounds in media were added to each well. The plates were incubated at 37° C. for 1 hour to allow for cellular uptake of compounds. 10 μL of substrate (cortisone) was then added to each well (100 nM final concentration) and incubated for 1 hour at 37° C. Plates were then transferred to ice and 80 μL of media transferred to a 96-well plate and stored at −30° C.
Plates were washed with PBS, 0.1% Tween-20, then washed with PBS alone. Plates were blocked with Blocking Buffer (Tropix Cat# AI075) for 2 hours at room temperature. The plates were then washed as previously described. Assay samples were thawed, diluted 1:4 in DMEM, 2 mg/mL BSA, 1% DMSO, and 24 μL was transferred to wells of a pre-coated 384-well plate, as well as varying amounts of cortisol standard. To each well, 12 μL of cortisol-conjugate and 12 μL of anti-cortisol EIA antibody were added and incubated 2 hrs at room temperature on a orbital plate shaker. The wells were then emptied by inversion, then washed three times with 100 μL of Wash Buffer (Tropix), and then 2 times with 100 μL of Assay Buffer (Tropix). 60 μL of CDP-STAR (Tropix) was added to each well and incubated 10 minutes at room temperature. Chemiluminescence was measured using a Victor V Reader (Perkin Elmer). Cortisol in each sample was interpolated from a standard curve generated with known amounts of cortisol. IC50 values were calculated using the curve fitting software XLFit3 (IDBS).
On the technique in general: In an ELISA, binding on a coated surface is turned into a signal by an enzyme label.

Chain of human HSD1 (P28845 whole entry): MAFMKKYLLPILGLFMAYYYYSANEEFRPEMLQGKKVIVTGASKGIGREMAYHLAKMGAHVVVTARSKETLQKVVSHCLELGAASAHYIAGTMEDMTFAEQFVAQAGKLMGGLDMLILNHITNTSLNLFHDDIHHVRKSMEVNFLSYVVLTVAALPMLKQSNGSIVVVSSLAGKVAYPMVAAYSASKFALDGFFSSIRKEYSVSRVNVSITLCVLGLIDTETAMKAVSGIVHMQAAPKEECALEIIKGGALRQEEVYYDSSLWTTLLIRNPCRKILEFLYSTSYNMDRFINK
T1 sequence (P28845 whole entry): as above

For `Cn1c2c(c(=O)n1-c1ccccc1F)[C@H]1CC[C@]2(C)C1(C)C` [Example 12, (4S,7R)-2-(2-Fluoro-phenyl)-1,7,8,8-tetramethyl-1,2,4,5,6,7-hexahydro-4,7-methano-indazol-3-one], the IC50 (in general, the concentration at which inhibition is half-maximal) in test [1] worked out at 291 nM; in test [2], 19 nM.

For the compound `Cn1c2c(c(=O)n1-c1ccc(F)cc1)[C@H]1CC[C@]2(C)C1(C)C` [Example 17, (4S,7R)-2-(4-Fluoro-phenyl)-1,7,8,8-tetramethyl-1,2,4,5,6,7-hexahydro-4,7-methano-indazol-3-one], the IC50 in test [1] was determined as 1720 nM; in test [2] it was 110 nM. Taken in the same sequence, the figures for `Cc1cccc(-n2c(=O)c3c(n2C)[C@]2(C)CC[C@H]3C2(C)C)c1C` [Example 21, (4S,7R)-2-(2,3-Dimethyl-phenyl)-1,7,8,8-tetramethyl-1,2,4,5,6,7-hexahydro-4,7-methano-indazol-3-one] were 10 nM and 19 nM. Consider `Cn1c2c(c(=O)n1Cc1cccc(F)c1)[C@H]1CC[C@]2(C)C1(C)C` [Example 32, (4S,7R)-2-(3-Fluoro-benzyl)-1,7,8,8-tetramethyl-1,2,4,5,6,7-hexahydro-4,7-methano-indazol-3-one], for which the IC50 is 23 nM in test [1] and 60 nM in test [2]. Taken in the same sequence, the figures for `COc1cccc(Cn2c(=O)c3c(n2C)[C@]2(C)CC[C@H]3C2(C)C)c1` [Example 34, (4S,7R)-2-(3-Methoxy-benzyl)-1,7,8,8-tetramethyl-1,2,4,5,6,7-hexahydro-4,7-methano-indazol-3-one] were 472 nM and 134 nM. In test [2], `Cn1c2c(c(=O)n1Cc1ccc(F)cc1C(F)(F)F)[C@H]1CC[C@]2(C)C1(C)C` [Example 37, (4S,7R)-2-(4-Fluoro-2-trifluoromethyl-benzyl)-1,7,8,8-tetramethyl-1,2,4,5,6,7-hexahydro-4,7-methano-indazol-3-one] registered a half-inhibitory concentration (IC50) of 27 nM. With `Cn1c2c(c(=O)n1Cc1ccc(C(N)=O)cc1)[C@H]1CC[C@]2(C)C1(C)C` [Example 39, (4S,7R)-4-(1,7,8,8-Tetramethyl-3-oxo-1,3,4,5,6,7-hexahydro-4,7-methano-indazol-2-ylmethyl)-benzamide], the IC50 in test [1] amounted to 101 nM; in test [2], 243 nM. Regarding `CC1(C)[C@@H]2CC[C@@]1(C)c1c2c(=O)n(-c2ccccc2)n1CCc1ccccc1` [Example 66, (4S,7R)-7,8,8-Trimethyl-1-phenethyl-2-phenyl-1,2,4,5,6,7-hexahydro-4,7-methano-indazol-3-one], the IC50 in test [2] came to 19 nM. Same read-out and setting: then `CC(C)c1cccc(-n2c(=O)c3c(n2C)[C@]2(C)CC[C@H]3C2(C)C)c1` [Example 75, (4S,7R)-2-(3-Isopropyl-phenyl)-1,7,8,8-tetramethyl-1,2,4,5,6,7-hexahydro-4,7-methano-indazol-3-one], with 17 nM. For `Cn1c2c(c(=O)n1-c1ccc(O)cc1)[C@H]1CC[C@]2(C)C1(C)C` [Example 76, (4S,7R)-2-(4-Hydroxy-phenyl)-1,7,8,8-tetramethyl-1,2,4,5,6,7-hexahydro-4,7-methano-indazol-3-one], the 50% inhibitory concentration (IC50) in test [2] is 20 nM.

In turn, `CC(C)CCn1c2c(c(=O)n1-c1ccc(F)cc1F)[C@H]1CC[C@]2(C)C1(C)C` [Example 87, (4S,7R)-2-(2,4-Difluoro-phenyl)-7,8,8-trimethyl-1-(3-methyl-butyl)-1,2,4,5,6,7-hexahydro-4,7-methano-indazol-3-one] came in with an IC50 in test [2] of 14 nM. Same read-out and setting: then `CC(C)(C)c1ccc(Cn2c3c(c(=O)n2-c2ccc(F)cc2F)[C@H]2CC[C@]3(C)C2(C)C)cc1` [Example 98, (4S,7R)-1-(4-tert-Butyl-benzyl)-2-(2,4-difluoro-phenyl)-7,8,8-trimethyl-1,2,4,5,6,7-hexahydro-4,7-methano-indazol-3-one], with 28 nM.

In test [2], `COc1ccc(Cn2c3c(c(=O)n2-c2ccc(F)cc2F)[C@H]2CC[C@]3(C)C2(C)C)cc1` [Example 99, (4S,7R)-2-(2,4-Difluoro-phenyl)-1-(4-methoxy-benzyl)-7,8,8-trimethyl-1,2,4,5,6,7-hexahydro-4,7-methano-indazol-3-one] showed an IC50 of 14 nM. Still for that read-out and setting: then `CC1(C)[C@@H]2CC[C@@]1(C)c1c2c(=O)n(-c2ccc(F)cc2F)n1Cc1ccc(C(F)(F)F)cc1` [Example 103, (4S,7R)-2-(2,4-Difluoro-phenyl)-7,8,8-trimethyl-1-(4-trifluoromethyl-benzyl)-1,2,4,5,6,7-hexahydro-4,7-methano-indazol-3-one], with 11 nM; and `COc1ncccc1Cn1c2c(c(=O)n1-c1ccc(F)cc1F)[C@@H]1CC[C@@]2(C)C1(C)C` [Example 113, (4R,7S)-2-(2,4-Difluoro-phenyl)-1-(2-methoxy-pyridin-3-ylmethyl)-7,8,8-trimethyl-1,2,4,5,6,7-hexahydro-4,7-methano-indazol-3-one], with 36 nM; and `CC1(C)[C@H]2CC[C@]1(C)c1c2c(=O)n(-c2ccc(F)cc2Cl)n1Cc1ccccc1` [Example 120, (4R,7S)-1-Benzyl-2-(2-chloro-4-fluoro-phenyl)-7,8,8-trimethyl-1,2,4,5,6,7-hexahydro-4,7-methano-indazol-3-one], with 18 nM. Still for that read-out and setting: with `CC1(C)[C@H]2CC[C@]1(C)c1c2c(=O)n(-c2ccc(F)cc2Cl)n1Cc1ccc(F)cc1F` [Example 122, (4R,7S)-2-(2-Chloro-4-fluoro-phenyl)-1-(2,4-difluoro-benzyl)-7,8,8-trimethyl-1,2,4,5,6,7-hexahydro-4,7-methano-indazol-3-one] the figure was 21 nM; with `CC1(C)[C@@H]2CC[C@@]1(C)c1c2c(=O)n(-c2ccc(F)cc2Cl)n1Cc1ccc(F)cc1F` [Example 123, (4S,7R)-2-(2-Chloro-4-fluoro-phenyl)-1-(2,4-difluoro-benzyl)-7,8,8-trimethyl-1,2,4,5,6,7-hexahydro-4,7-methano-indazol-3-one], 9 nM. Still for that read-out and setting: then `Cn1c2c(c(=O)n1-c1cccc(Cl)c1Cl)[C@H]1CC[C@]2(C)C1(C)C` [Example 126, (4S,7R)-2-(2,3-Dichloro-phenyl)-1,7,8,8-tetramethyl-1,2,4,5,6,7-hexahydro-4,7-methano-indazol-3-one], with 6 nM. With `Cn1c2c(c(=O)n1-c1cc(C(F)(F)F)ccc1F)[C@H]1CC[C@]2(C)C1(C)C` [Example 132, (4S,7R)-2-(2-Fluoro-5-trifluoromethyl-phenyl)-1,7,8,8-tetramethyl-1,2,4,5,6,7-hexahydro-4,7-methano-indazol-3-one], in test [2], the IC50 stood at 210 nM.

On to `Cn1c2c(c(=O)n1-c1cc(F)ccc1C(F)(F)F)[C@H]1CC[C@]2(C)C1(C)C` [Example 133, (4S,7R)-2-(5-Fluoro-2-trifluoromethyl-phenyl)-1,7,8,8-tetramethyl-1,2,4,5,6,7-hexahydro-4,7-methano-indazol-3-one], for which the IC50 in test [2] was determined as 21 nM. Still for that read-out and setting: with `Cc1cccc(-n2c(=O)c3c(n2Cc2ccccc2)[C@@]2(C)CC[C@@H]3C2(C)C)c1C` [Example 137, (4R,7S)-1-Benzyl-2-(2,3-dimethyl-phenyl)-7,8,8-trimethyl-1,2,4,5,6,7-hexahydro-4,7-methano-indazol-3-one] the figure was 4 nM; with `Cn1c2c(c(=O)n1-c1ccc3ccccc3c1)[C@H]1CC[C@]2(C)C1(C)C` [Example 144, (4S,7R)-1,7,8,8-Tetramethyl-2-naphthalen-2-yl-1,2,4,5,6,7-hexahydro-4,7-methano-indazol-3-one], 24 nM; with `CC1(C)[C@H]2CC[C@]1(C)c1c2c(=O)n(-c2ccc3ccccc3c2)n1Cc1ccccc1` [Example 145, (4R,7S)-1-Benzyl-7,8,8-trimethyl-2-naphthalen-2-yl-1,2,4,5,6,7-hexahydro-4,7-methano-indazol-3-one], 21 nM. In test [2], `Cc1nc(Cn2c(=O)c3c(n2Cc2ccccc2)[C@@]2(C)CC[C@@H]3C2(C)C)cs1` [Example 150, (4R,7S)-1-Benzyl-7,8,8-trimethyl-2-(2-methyl-thiazol-4-ylmethyl)-1,2,4,5,6,7-hexahydro-4,7-methano-indazol-3-one] came in with an IC50 of 208 nM.
